Values of other authors in US20220168121A1, “FIBROSIS-INDUCING DRUG-ELUTING STENT FOR BLOCKING ELECTRIC CONDUCTION” (SUNGKWANG MEDICAL FOUNDATION, priority 2019, published 2022).
Where a name gives a salt, the structure may show the parent alone.

SMILES | water solubility | stability in a solid state (solid state)
CCCCC(CC)CCC(CC(C)C)OS(=O)(=O)O (stereo not drawn) [sodium tetradecyl sulfate] | water soluble | unstable properties in a solid state
CCCCCCCCCCCCCCOS(=O)(=O)O [sodium tetradecyl sulfate] | water insoluble | 
